In publication PMC7407491, “The Addition of a Synthetic LPS-Targeting Domain Improves Serum Stability While Maintaining Antimicrobial, Antibiofilm, and Cell Stimulating Properties of an Antimicrobial Peptide” (Biomolecules, 2020):
Bridge positions count the residues as written; N and C are the ends. Peptide text beside a SMILES is read from it.

How the values were obtained:
[1] = system: MRSA; format: cell-based, Methicillin-resistant Staphylococcus aureus; conditions: 2 h, pH 7
Description: Veterinary clinical isolates, including Salmonella typhimurium, multi-drug resistant Escherichia coli, methicillin-resistant Staphylococcus aureus (MRSA), and methicillin-resistant Staphylococcus pseudointermedius (MRSP), were kindly provided by Dr. H. Cai (Department of Pathobiology, University of Guelph, ON, Canada). An antibiogram for these strains is available in the supplementary text (Table S1). Gram-negative strains were cultured in Luria−Bertani (LB) broth. Gram-positive strains were cultured in Tryptic soy broth (TSB). Both cultures were grown under aerobic conditions at 37 °C.
The minimum bactericidal concentration (MBC) of SynPG-1 against the tested pathogens was identified through a broth macrodilution antimicrobial assay as previously described, with some modification. […] The buffer volume was adjusted to accommodate the addition of SynPG-1 and PG-1 so that the final solution volume was 0.5 mL for each tested concentration. Final peptide concentrations ranged from 0.1 µg/mL to 8 µg/mL. PG-1 at the known MBC (2 µg/mL E. coli; 4 µg/mL S. typhimurium; 0.5 µg/mL MRSP; 0.5 µg/mL MRSA) was considered the in-house positive control, while the suspension containing no peptide was considered the negative control. Experimental and control tubes were incubated for 2 h at 37 °C without shaking to allow for bactericidal action to occur. […] Colony numbers from each plate were recorded. […]

[2] = system: MRSA biofilm; assay: Biofilm inhibition assay, crystal violet; format: cell-based, Methicillin-resistant Staphylococcus aureus; conditions: minimal salt media, 48 h 37 °C static, crystal violet OD 590 nm; p < 0.05 vs control; concentration dependent
Description: Plates were placed in a static incubator at 37 °C for 48 h; the time required for untreated wells to form biofilm. After incubation, treated media was removed and wells were rinsed with 155 µL of PBS to remove planktonic cells. After sufficient air drying of wells, 150 µL of 0.1% Crystal violet stain was added to each well and incubated at room temperature for 30 min, after which, dye was removed and wells were rinsed again with 155 µL of PBS. After sufficient drying of wells, 150 µL of 70% ethanol solution was added to each well and incubated at room temperature for 30 min. After 30 min, 100 µL of each well was added to a new 96-well plate and absorbance was measured at an OD of 590 nm.

[3] = system: S. typhimurium biofilm; assay: Enumeration of viable cells after biofilm inhibition; format: cell-based, Salmonella typhimurium; conditions: 4 µg/mL, 48 h biofilm formation, CFU plated
Description: In order to investigate whether prevention or degradation of biofilm by peptide treatment impacted bacterial cell growth within the biofilm, an enumeration assay was carried out. The following protocol was developed using methods described in the work by Wilson et al.. Briefly, in separate 15 mL culture tubes, 20 µL of overnight culture of either E. coli, S. typhimurium, or MRSA were added to 1 mL of minimal salt media (40 mM […]; 22 mM KH2PO4; […] NH4CL; 740 mM NaCl; 2 mM MgSO4; 0.1 mM CaCl2; 22 mM supplemented with D-Glucose) and treated with PG-1 or SynPG-1. Due to the laborious procedure, the study was limited to measuring cell viability for only two concentrations, basing the choice on the highest significant reduction of biomass from crystal violet staining for each strain. […] These concentrations were chosen for the enumeration assay. In instances where no substantial reduction was seen, as in the case of E. coli, the highest tested biomass concentration, or higher, was chosen to confirm the lack of activity on viability. […] Tubes were placed in a static incubator at 37 °C for 48 h; the time required for untreated wells to form biofilm. After 48 h, treated media was removed and wells were rinsed with 1 mL of PBS to remove planktonic cells. […] CFU was recorded. […]

[4] = system: IPEC-J2 cells; assay: In vitro cell migration, transwell assay; format: cell-based, porcine; conditions: transwell 8-micron, serum-free DMEM F-12, 5 to 20 µg/mL, 16 h, Hoechst 33342 count; SynPG-1 not significant at higher concentrations
Description: A cell line, established from intestinal porcine enterocytes, isolated from the jejunum of a neonatal unsuckled piglet (IPEC-J2 cells, DSMZ), was grown in monolayer culture in Dulbecco’s modified Eagle’s medium (high glucose), supplemented with 10% fetal bovine serum (FBS) from Invitrogen, 100 IU/mL penicillin, and 100 µg/mL streptomycin. Cultures were maintained in a 5% CO2 humidified atmosphere at 37 °C and passaged every 2–3 days, with detachment via the Trypsin-EDTA solution (Sigma).
To evaluate migration of IPEC-J2 cells, 8-micron pore-sized cell culture transwell inserts were used (Millipore Inc, Temecula, CA, USA). A total of 1 × 10^5 cells were plated in the upper inserts of the transwell and placed within 24-well plates, containing serum-free DMEM F-12 in the absence and presence of SynPG-1 or PG-1, at concentrations ranging from 5 µg/mL to 20 µg/mL. After incubation for 16 h, the cells were fixed with 4% (w/v) paraformaldehyde. […] Migration was quantified by cell enumeration through Hoechst 33342 staining of cell nuclei (Thermo Fisher Scientific, Mississauga, ON, Canada). The results are represented as the relative fold increase in migrated cells when compared to the baseline migration of IPEC-J2 cells in serum-free media after 16 h.

Compound: CC[C@H](C)[C@H](NC(=O)[C@H](CCCCN)NC(=O)[C@H](CCCNC(=N)N)NC(=O)[C@H](CC(C)C)NC(=O)[C@H](CC(C)C)NC(=O)[C@H](CCCNC(=N)N)NC(=O)[C@H](CCCNC(=N)N)NC(=O)[C@H](CC(C)C)NC(=O)CN)C(=O)N[C@@H](CCCNC(=N)N)C(=O)NCC(=O)N[C@@H](CCCNC(=N)N)C(=O)N[C@@H](Cc1c[nH]c2ccccc12)C(=O)N[C@@H](CCCCN)C(=O)NCC(=O)NCC(=O)NCC(=O)N[C@@H](CCCNC(=N)N)C(=O)NCC(=O)NCC(=O)N[C@@H](CCCNC(=N)N)C(=O)N[C@@H](CC(C)C)C(=O)N[C@H]1CSSC[C@@H](C(=O)N[C@H](C(=O)NCC(=O)N[C@@H](CCCNC(=N)N)C(=O)O)C(C)C)NC(=O)[C@H](C(C)C)NC(=O)[C@@H]2CSSC[C@H](NC(=O)[C@H](Cc3ccc(O)cc3)NC1=O)C(=O)N[C@@H](CCCNC(=N)N)C(=O)N[C@@H](CCCNC(=N)N)C(=O)N[C@@H](CCCNC(=N)N)C(=O)N[C@@H](Cc1ccccc1)C(=O)N2 [SynPG-1, Syn-Protegrin-1] (H-GLRRLLRKIRGRWKGGGRGGRLCYCRRRFCVCVGR-OH; disulfide 23-32, 25-30; N-terminus and C-terminus assumed)
- MBC [1]: 0.5 (0.09) μg/mL
- Concentration at which inhibition of biofilm formation was seen [2]: 2 µg/mL
- Reduction of mean % growth of control compared with PG-1 [3]: significantly lower reduction of mean % growth of control
- Concentration at which cell migration increased significantly [4]: 5 µg/mL
